Experimental data published in ChEMBL document CHEMBL4483862, “Open-source discovery of chemical leads for next-generation chemoprotective antimalarials” (2018).

Test system: Plasmodium berghei
Assay: Luciferase/luciferin-expressing antifolate-resistant parasites were used to infect a culture of HepG2 cells that were pre-incubated with compounds. Infected hepatocytes emit light due to the luciferase reaction. Assay results are presented as the percent inhibition of light emission compared to control. […]
Format: functional
Details: sporozoite; for IC90: read-out: LUCIFERASE INFECTION ASSAY - IC90
[1] = read-out: LUCIFERASE INFECTION ASSAY - IC50

Compound	IC90 [µM]	further results
Cc1c(C(=O)OCc2ccc(C(C)C)cc2)sc2nc3n(c(=O)c12)CCC3	> 10	IC50 (PBLUC_HILL_SLOPE 5.57, PBLUC_R_SQUARED 0.253, read-out: LUCIFERASE INFECTION ASSAY - IC50): 6.97 µM
O=C(Nc1nnc(-c2ccco2)s1)c1csc(COc2ccc(Cl)cc2)n1	> 10	IC50 (PBLUC_HILL_SLOPE 1.45, PBLUC_R_SQUARED 0.301, read-out: LUCIFERASE INFECTION ASSAY - IC50): 4.28 µM
CCCCCn1c(Sc2ncc([N+](=O)[O-])s2)n[nH]c1=O	> 10.5	IC50 (HEPG2TOX_HILL_SLOPE 11.8, HEPG2TOX_R_SQUARED 0.641, PBLUC_HILL_SLOPE 4, PBLUC_R_SQUARED 0.202, read-out: LUCIFERASE INFECTION ASSAY - IC50): 7 µM
Cc1cnc(NC(=O)c2ccc(C3SCCS3)cc2)s1	> 10	IC50 [1]: 0.273 µM
COc1ccc(-c2cnc3cnc(-c4ccc(C(=O)NC5CC5)cc4)cn23)cc1	3.59	IC50 (PBLUC_HILL_SLOPE 9.57, PBLUC_R_SQUARED 0.525, read-out: LUCIFERASE INFECTION ASSAY - IC50): 2.85 µM
FC(F)(F)c1cccc(-c2ccc3ncc(-c4ccncc4)n3n2)c1	1.31	IC50 (HEPG2TOX_HILL_SLOPE 8.22, HEPG2TOX_R_SQUARED 0.275, PBLUC_HILL_SLOPE 7.22, PBLUC_R_SQUARED 0.51, read-out: LUCIFERASE INFECTION ASSAY - IC50): 0.969 µM
COc1cccc(-c2nc3ccc(NC(=O)CC(C)(C)C)cn3n2)c1	> 10	IC50 (PBLUC_HILL_SLOPE 0.895, PBLUC_R_SQUARED 0.614, read-out: LUCIFERASE INFECTION ASSAY - IC50): 0.974 µM
CC(C)c1ccc2c(ccc[n+]2C)c1	> 10.5	IC50 (PBLUC_HILL_SLOPE 4.53, PBLUC_R_SQUARED 0.451, read-out: LUCIFERASE INFECTION ASSAY - IC50): 8.36 µM
COc1ccc(OC)c(CCNc2nc3cnc(-c4cccc(OC(F)(F)F)c4)cc3n2C)c1	4.72	IC50 (HEPG2TOX_HILL_SLOPE 4.6, HEPG2TOX_R_SQUARED 0.893, PBLUC_HILL_SLOPE 3.53, PBLUC_R_SQUARED 0.694, read-out: LUCIFERASE INFECTION ASSAY - IC50): 2.53 µM
CN(C)CCCNC(=O)c1ccc(-c2cn3c(-c4cccc(Cl)c4)cnc3cn2)cc1	> 7.6	IC50 [1]: > 7.6 µM
CC(C)(C)OC(=O)NC1CCN(C(=O)Nc2cc(Cl)cc(Cl)c2)CC1	> 8.5	IC50 (PBLUC_HILL_SLOPE 7.08, PBLUC_R_SQUARED 0.106, read-out: LUCIFERASE INFECTION ASSAY - IC50): > 8.5 µM
CC(=O)c1sc2sc(C#N)c(C)c2c1C	> 14	IC50 [1]: > 14 µM
CN(CC1COc2ccccc2O1)c1ccc(C#N)cn1 (configuration not stated)	> 10	IC50 (HEPG2TOX_HILL_SLOPE 3.52, HEPG2TOX_R_SQUARED 0.623, PBLUC_HILL_SLOPE 1.89, PBLUC_R_SQUARED 0.914, read-out: LUCIFERASE INFECTION ASSAY - IC50): 5.89 µM
Cn1ccc2cc(-c3cn4c(-c5cccc(F)c5)cnc4cn3)ccc21	2.18	IC50 (HEPG2TOX_HILL_SLOPE 1.6, HEPG2TOX_R_SQUARED 0.918, PBLUC_HILL_SLOPE 3.4, PBLUC_R_SQUARED 0.713, read-out: LUCIFERASE INFECTION ASSAY - IC50): 1.14 µM
Oc1cccnc1NC(c1ccccc1F)c1ccc2cccnc2c1O (configuration not stated)	9.5	IC50 (FFLUC_HILL_SLOPE 2.5, FFLUC_R_SQUARED 0.451, HEPG2TOX_HILL_SLOPE 1.9, HEPG2TOX_R_SQUARED 0.963, PBLUC_HILL_SLOPE 13, PBLUC_R_SQUARED 0.418, read-out: LUCIFERASE INFECTION ASSAY - IC50): 8.03 µM
C=CCn1c(C)cc(C(=O)CSc2ccc(NC(C)=O)cc2)c1C	2.85	IC50 (PBLUC_HILL_SLOPE 1.26, 1.79, PBLUC_R_SQUARED 0.402, 0.760, read-out: LUCIFERASE INFECTION ASSAY - IC50): 1.34 µM
OC(c1ccc(F)c(Cl)c1)c1nnc(Nc2cccc(OC(F)(F)F)c2)s1 (configuration not stated)	> 10	IC50 (PBLUC_HILL_SLOPE 2.34, PBLUC_R_SQUARED 0.225, read-out: LUCIFERASE INFECTION ASSAY - IC50): 9.05 µM
CCN(CCO)c1ccc(NC2=C(NC(C)=O)C(=O)c3ccccc3C2=O)cc1	> 10	IC50 (FFLUC_HILL_SLOPE 10.4, FFLUC_R_SQUARED 0.141, HEPG2TOX_HILL_SLOPE 0.681, HEPG2TOX_R_SQUARED 0.905, PBLUC_HILL_SLOPE 1.27, PBLUC_R_SQUARED 0.687, read-out: LUCIFERASE INFECTION ASSAY - IC50): 2.16 µM
CCOC(=O)c1sc(N)c(C#N)c1CSc1nnc(-c2ccc(OC)c(OC)c2)o1	9.92	IC50 (HEPG2TOX_HILL_SLOPE 2.07, 4.99, HEPG2TOX_R_SQUARED 0.833, 0.121, PBLUC_HILL_SLOPE 3.67, 1.56, PBLUC_R_SQUARED 0.0908, 0.540, read-out: LUCIFERASE INFECTION ASSAY - IC50): 4.06 µM
CN(C)C(=O)Cc1nc(CSc2nc3ncccn3n2)cs1	> 10	IC50 [1]: > 10 µM
CC(OC(=O)c1cc2sc3ccccc3c2s1)C(=O)N1CCNC1=O (configuration not stated)	9.91	IC50 (PBLUC_HILL_SLOPE 15.1, PBLUC_R_SQUARED 0.0385, read-out: LUCIFERASE INFECTION ASSAY - IC50): 8.57 µM

Compound	IC90 [µM]	further results
N=C1C(c2nc3ccccc3[nH]2)C(=O)CN1NC(=O)Cn1nnc(-c2cccc(C(F)(F)F)c2)n1 (configuration not stated)	> 10	IC50 [1]: > 10 µM
Oc1c(C(Nc2ccccn2)c2ccsc2)cc(Cl)c2cccnc12 (configuration not stated)	> 8.97	IC50 (FFLUC_HILL_SLOPE 4.25, FFLUC_R_SQUARED 0.273, HEPG2TOX_HILL_SLOPE 7.18, HEPG2TOX_R_SQUARED 0.784, PBLUC_HILL_SLOPE 2.69, PBLUC_R_SQUARED 0.266, read-out: LUCIFERASE INFECTION ASSAY - IC50): 4.02 µM
CCCCCCCCc1nnc(NC(=O)c2nccnc2N)s1	4.58	IC50 (PBLUC_HILL_SLOPE 9.5, PBLUC_R_SQUARED 0.438, read-out: LUCIFERASE INFECTION ASSAY - IC50): 3.63 µM
CCCCC(CC)Cn1c(SCc2nc(N)nc(N)n2)nnc1-c1ccc(Cl)cc1 (configuration not stated)	> 10	IC50 [1]: > 10 µM
Cc1cc(Br)ccc1NC(=O)CNC(=O)CCC(=O)N1CCC(c2ccccc2)=N1	> 10	IC50 [1]: > 10 µM
O=C(c1ccoc1)N1CCN(Cc2sc3ccccc3c2Cl)CC1	> 10	IC50 [1]: > 10 µM
Cc1c(Cl)cccc1NC(=O)CCc1nc(C(C)C)no1	> 10	IC50 (FFLUC_HILL_SLOPE 18.3, FFLUC_R_SQUARED 0.35, read-out: LUCIFERASE INFECTION ASSAY - IC50): > 10 µM
O=c1c(Br)c(Br)cnn1-c1ccccc1	> 10	IC50 (HEPG2TOX_HILL_SLOPE 14.1, HEPG2TOX_R_SQUARED 0.656, PBLUC_HILL_SLOPE 2.79, PBLUC_R_SQUARED 0.266, read-out: LUCIFERASE INFECTION ASSAY - IC50): 6.1 µM
Cc1cc(-c2ccccc2)[n+]2nc(N)c3ccccc3c2n1	> 10	IC50 (HEPG2TOX_HILL_SLOPE 2.74, HEPG2TOX_R_SQUARED 0.909, PBLUC_HILL_SLOPE 12.1, PBLUC_R_SQUARED 0.242, read-out: LUCIFERASE INFECTION ASSAY - IC50): 9.17 µM
CCCCC1(Cc2ccccc2)C(=O)c2cccc3c4ccccc4n(c23)C1=O (configuration not stated)	> 8.65	IC50 (PBLUC_HILL_SLOPE 2.19, PBLUC_R_SQUARED 0.0283, read-out: LUCIFERASE INFECTION ASSAY - IC50): 8.01 µM
CC1C/C(=C\c2ccco2)c2nc3ccccc3c(C(=O)OCC(=O)N3CC(=O)Nc4ccccc43)c2C1 (configuration not stated)	> 10	IC50 [1]: > 10 µM
CCCn1c(NC(=O)C2CC(=O)N(Cc3ccc(C)cc3)C2)nc2ccccc21 (configuration not stated)	> 10	IC50 [1]: > 10 µM
CC(C)(C)c1csc(NC(=O)c2ccc(Br)cc2)n1	8.74	IC50 (HEPG2TOX_HILL_SLOPE 15.1, HEPG2TOX_R_SQUARED 0.819, PBLUC_HILL_SLOPE 4.4, PBLUC_R_SQUARED 0.25, read-out: LUCIFERASE INFECTION ASSAY - IC50): 5.3 µM
COCc1nn2c3c(nnc2c1-c1ccccc1)C(=O)CC(c1ccccc1)C3 (configuration not stated)	3.29	IC50 (FFLUC_HILL_SLOPE 8, FFLUC_R_SQUARED 0.814, HEPG2TOX_HILL_SLOPE 2.3, HEPG2TOX_R_SQUARED 0.367, PBLUC_HILL_SLOPE 4.06, PBLUC_R_SQUARED 0.599, read-out: LUCIFERASE INFECTION ASSAY - IC50): 1.92 µM
COC(=O)c1scc(S(=O)(=O)c2ccc(Cl)cc2)c1C	> 9.98	IC50 [1]: > 9.98 µM
Cc1cc(C(=O)NCCc2cccc(F)c2)c(C)n1C(C)C	0.0364	IC50 (PBLUC_HILL_SLOPE 3.76, PBLUC_R_SQUARED 0.418, read-out: LUCIFERASE INFECTION ASSAY - IC50): 0.0203 µM
Cc1c(C(=O)Nc2nc3c(C)cccc3s2)[nH]c2c1C(=O)CCC2	> 10	IC50 (PBLUC_HILL_SLOPE 2.07, PBLUC_R_SQUARED 0.0587, read-out: LUCIFERASE INFECTION ASSAY - IC50): 5.05 µM
CC(C)(C)c1cc(C(=O)NNC(=S)Nc2ccccc2)n(Cc2ccc(Cl)cc2Cl)n1	4.51	IC50 (FFLUC_HILL_SLOPE 12.6, FFLUC_R_SQUARED 0.389, HEPG2TOX_HILL_SLOPE 2.18, HEPG2TOX_R_SQUARED 0.945, PBLUC_HILL_SLOPE 8.72, PBLUC_R_SQUARED 0.517, read-out: LUCIFERASE INFECTION ASSAY - IC50): 3.51 µM
FC(F)(F)c1cccc(-c2cnc3sc(NCCc4ccncc4)nn23)c1	> 8.47	IC50 [1]: > 8.47 µM
O=C(COC(=O)c1cc2ccccc2cc1O)NC(c1ccccc1)c1ccccc1	> 10	IC50 (FFLUC_HILL_SLOPE 2.56, FFLUC_R_SQUARED 0.57, PBLUC_HILL_SLOPE 2.71, PBLUC_R_SQUARED 0.551, read-out: LUCIFERASE INFECTION ASSAY - IC50): 4.79 µM
